Results reported in patent US10098350B2, “Fungicidal amides” (E. I. DU PONT DE NEMOURS AND COMPANY, priority 2013, dated 2018).

Key:
Format in all cases: in vivo
[1] = tested on: Stagonospora nodorum (also known as Septoria nodorum); assay: Test B: wheat seedlings sprayed with test suspension, inoculated with Stagonospora nodorum (wheat glume blotch), visual disease rating
Description: (§1) General protocol for preparing test suspensions for Tests A-E: the test compounds were first dissolved in acetone in an amount equal to 3% of the final volume and then suspended at the desired concentration (in ppm) in acetone and purified water (50/50 mix by volume) containing 250 ppm of the surfactant Trem® 014 (polyhydric alcohol esters). The resulting test suspensions were then used in Tests A-E. Samples were applied to plants at either a 10 ppm (**), 40 ppm, 50 ppm (*) or 200 ppm (#) test solution to the point of run-off on the test plants with the equivalent of a rate of 40 g ai/ha, 160 g ai/ha, 200 g ai/ha, or 800 g ai/ha, respectively.
The test suspension was sprayed to the point of run-off on wheat seedlings. The following day the seedlings were inoculated with a spore suspension of Stagonospora nodorum (also known as Septoria nodorum; the causal agent of wheat glume blotch) and incubated in a saturated atmosphere at 20° C. for 48 h, and then moved to a growth chamber at 20° C. for 6 days, after which time visual disease ratings were made.
(§2) Results for Tests A-E are given in Table A. In the Table, a rating of 100 indicates 100% disease control and a rating of 0 indicates no disease control (relative to the controls). A dash (-) indicates no test results.

[2] = tested on: Erysiphe graminis f. sp. tritici; assay: Test E: wheat seedlings sprayed with test suspension, inoculated with Erysiphe graminis f. sp. tritici (wheat powdery mildew), visual disease rating
Description: as §1
The test suspension was sprayed to the point of run-off on wheat seedlings. The following day the seedlings were inoculated with a spore dust of Erysiphe graminis f. sp. tritici, (the causal agent of wheat powdery mildew) and incubated in a growth chamber at 20° C. for 7 or 8 days, after which time visual disease ratings were made.
as §2

Septoria tritici = assay: Test C: wheat seedlings sprayed with test suspension, inoculated with Septoria tritici (wheat leaf blotch), visual disease rating
Description: as §1
(§3) The test suspension was sprayed to the point of run-off on wheat seedlings. The following day the seedlings were inoculated with a spore suspension of Septoria tritici (the causal agent of wheat leaf blotch) and incubated in a saturated atmosphere at 24° C. for 48 h, and then moved to a growth chamber at 20° C. for 21 days, after which time visual disease ratings were made.
as §2

[3] = tested on: Puccinia recondite f. sp. tritici; assay: Test D: wheat seedlings sprayed with test suspension, inoculated with Puccinia recondite f. sp. tritici (wheat leaf rust), visual disease rating
Description: as §1
as §3, with “Puccinia recondite f. sp. tritici;” for “Septoria tritici”, “rust)” for “blotch)”, “20°” for “24°”, “24” for “48”, “6” for “21”
as §2

[4] = Cmpd. No. unmarked, 100 = 100% disease control, 0 = no control relative to controls
[5] = Cmpd. No. marked '**' (other test rate; meaning of mark not shown)
[6] = Cmpd. No. marked '*' (other test rate; meaning of mark not shown)

SMILES | Test B rating (% disease control) [1, 4] [%] | Test E rating (% disease control) [2, 4] [%] | Test C rating (% disease control) (Septoria tritici; [4]) [%] | Test D rating (% disease control) [3, 4] [%] | other results
Cc1cc(-n2ccc(C(F)(F)F)n2)ccc1CN(C(=O)c1c(C(F)F)nn(C)c1F)C1CC1 [compound 105] | 100 | 98 | 98 | 99 | –
Cn1cc(C(=O)N(Cc2ccc(-n3cccn3)cc2Cl)C2CC2)c(C(F)F)n1 [compound 48] | 100 | 73 | 98 | 0 | –
C#CCOc1cc(-n2ccc(C(F)(F)F)n2)ccc1CN(C(=O)c1c(C(F)F)nn(C)c1F)C1CC1 [compound 62] | 99 | 94 | 99 | 99 | –
Cn1nc(C(F)F)c(C(=O)N(Cc2ccc(-n3ccc(C(F)(F)F)n3)c(Cl)c2)C2CC2)c1F [compound 99] | – | – | – | – | Test B rating (% disease control) [1, 5]: 59%; Test E rating (% disease control) [2, 5]: 89%; Test C rating (% disease control) (Septoria tritici; [5]): 96%; Test D rating (% disease control) [3, 5]: 97%
Cc1ccc(-n2ccc(C(F)(F)F)n2)cc1C(C)N(C(=O)c1c(C(F)F)nn(C)c1F)C1CC1 (stereo not drawn) [compound 52] | 100 | 99 | 99 | 93 | –
CC(c1cc(-n2ccc(C(F)(F)F)n2)cc(C(F)(F)F)c1)N(C(=O)c1cn(C)nc1C(F)F)C1CC1 (stereo not drawn) [compound 42] | 0 | 0 | 39 | 0 | –
CC(c1ccc(-n2ccc(C(F)(F)F)n2)cc1Cl)N(C(=O)c1c(C(F)F)nn(C)c1F)C1CC1 (stereo not drawn) [compound 72] | 100 | 99 | 100 | 99 | –
Cn1nc(C(F)F)c(C(=O)N(Cc2c(Cl)cc(-n3ccc(Br)n3)cc2Cl)C2CC2)c1F [compound 132] | 100 | 91 | 99 | 100 | –
CC(c1cc(-n2ccc(C(F)(F)F)n2)ccc1Cl)N(C(=O)c1c(C(F)F)nn(C)c1F)C1CC1 (stereo not drawn) [compound 135] | – | – | – | – | Test B rating (% disease control) [1, 6]: 100%; Test E rating (% disease control) [2, 6]: 95%; Test C rating (% disease control) (Septoria tritici; [6]): 99%; Test D rating (% disease control) [3, 6]: 80%
Cn1nc(C(F)F)c(C(=O)N(Cc2ccc(-n3cnc(C(F)(F)F)n3)cc2Cl)C2CC2)c1F [compound 67] | 0 | 0 | 99 | 0 | –
CC(c1cc(-n2ccc(C(F)(F)F)n2)ccc1Br)N(C(=O)c1c(C(F)F)nn(C)c1F)C1CC1 (stereo not drawn) [compound 53] | 100 | 96 | 97 | 74 | –
Cn1nc(C(F)F)c(C(=O)N(Cc2ccc(-n3ccc(C(F)(F)F)n3)c(Br)c2)C2CC2)c1F [compound 98] | – | – | – | – | Test B rating (% disease control) [1, 5]: 64%; Test E rating (% disease control) [2, 5]: 84%; Test C rating (% disease control) (Septoria tritici; [5]): 94%; Test D rating (% disease control) [3, 5]: 86%
Cn1nc(C(F)F)c(C(=O)N(Cc2ccc(-n3ccnn3)cc2Cl)C2CC2)c1F [compound 66] | 97 | 0 | 94 | 28 | –
CC(c1cc(-n2ccc(C(F)(F)F)n2)ccc1[N+](=O)[O-])N(C(=O)c1cn(C)nc1C(F)F)C1CC1 (stereo not drawn) [compound 129] | 0 | 0 | 10 | 0 | –
CC(c1cc(-n2ccc(C(F)(F)F)n2)ccc1OC(F)(F)F)N(C(=O)c1cn(C)nc1C(F)F)C1CC1 (stereo not drawn) [compound 130] | 93 | 72 | 28 | 68 | –
Cc1cc(-n2ccc(C(F)(F)F)n2)cnc1CN(C(=O)c1cn(C)nc1C(F)F)C1CC1 [compound 124] | 0 | 73 | 94 | 0 | –

SMILES | Test B rating (% disease control) [1, 4] [%] | Test E rating (% disease control) [2, 4] [%] | Test C rating (% disease control) (Septoria tritici; [4]) [%] | Test D rating (% disease control) [3, 4] [%] | other results
Cn1nc(C(F)F)c(C(=O)N(Cc2ccc(-n3ccc(Br)n3)cc2Cl)C2CC2)c1F [compound 47] | 100 | 99 | 99 | 98 | –
CC(c1cc(-n2ccc(C(F)(F)F)n2)ccc1OC(F)(F)F)N(C(=O)c1c(C(F)F)nn(C)c1F)C1CC1 (stereo not drawn) [compound 133] | – | – | – | – | Test B rating (% disease control) [1, 6]: 100%; Test E rating (% disease control) [2, 6]: 94%; Test C rating (% disease control) (Septoria tritici; [6]): 92%; Test D rating (% disease control) [3, 6]: 68%
CC(c1cc(-n2ccc(C(F)(F)F)n2)ccc1Cl)N(C(=O)c1cn(C)nc1C(F)F)C1CC1 (stereo not drawn) [compound 119] | 99 | 92 | 92 | 93 | –
CC(c1cc(-n2ccc(C(F)(F)F)n2)ccc1Br)N(C(=O)c1cn(C)nc1C(F)F)C1CC1 (stereo not drawn) [compound 128] | 100 | 93 | 92 | 0 | –
COc1ccc(-n2ccc(C(F)(F)F)n2)cc1C(C)N(C(=O)c1cn(C)nc1C(F)F)C1CC1 (stereo not drawn) [compound 120] | 100 | 95 | 92 | – | –
Cc1cnn(-c2ccc(CN(C(=O)c3c(C(F)F)nn(C)c3F)C3CC3)c(Cl)c2)c1 [compound 144] | 100 | 99 | 99 | 97 | –
Cc1ncn(-c2ccc(CN(C(=O)c3c(C(F)F)nn(C)c3F)C3CC3)c(Cl)c2)n1 [compound 65] | 87 | 0 | 98 | 0 | –
COc1ccc(C(C)N(C(=O)c2c(C(F)F)nn(C)c2F)C2CC2)cc1-n1ccc(C(F)(F)F)n1 (stereo not drawn) [compound 55] | 100 | 87 | 97 | 61 | –
Cn1nc(C(F)F)c(C(=O)N(Cc2ccc(-n3ccc(C(F)(F)F)n3)cc2Cl)C2CCC2)c1F [Compound 162] | – | – | – | – | Test B rating (% disease control) [1, 5]: 0%; Test E rating (% disease control) [2, 5]: 0%; Test C rating (% disease control) (Septoria tritici; [5]): 64%; Test D rating (% disease control) [3, 5]: 0%
Cn1nc(C(F)F)c(C(=O)N(Cc2ccc(-n3cc(Cl)cn3)cc2Cl)C2CC2)c1F [compound 143] | 100 | 99 | 99 | 99 | –
CC(c1ccc(Cl)c(-n2ccc(C(F)(F)F)n2)c1)N(C(=O)c1cn(C)nc1C(F)F)C1CC1 (stereo not drawn) [compound 126] | 92 | 48 | 92 | 68 | –
Cn1nc(C(F)F)c(C(=O)N(Cc2c(Cl)cc(-n3cccn3)cc2Cl)C2CC2)c1F [compound 125] | 100 | 92 | 99 | 100 | –
Cn1nc(C(F)F)c(C(=O)N(Cc2ccc(-n3ccc(C(F)(F)F)n3)cc2OCC#N)C2CC2)c1F [compound 61] | 0 | 21 | 90 | 9 | –
Cn1cc(C(=O)N(Cc2c(Cl)cc(-n3ccc(Br)n3)cc2Cl)C2CC2)c(C(F)F)n1 [compound 40] | 99 | 89 | 99 | 99 | –
Cn1nc(C(F)F)c(C(=O)N(Cc2ccc(-n3cccn3)cc2Cl)C2CC2)c1F [compound 46] | 100 | 98 | 99 | 94 | –
